According to US11292788B2, “IL-17 and IFN-gamma inhibition for the treatment of autoimmune diseases and chronic inflammation” (Immunic AG, priority 2017, dated 2022):

Key:
INF-γ = assay: Cytokine assay: INF-γ production by human PBMC stimulated with PHA; type: cell-based; conditions: Homo sapiens, PBMC, IC50 class, read-out: IFN-gamma Inhib.
How it was run: (§1)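 Human donor PBMC (1×10^5 cells/well) were activated with 2 μg/ml PHA and exposed to compounds for 48 h. Supernatant IL-17A, IL-17F and IFN-γ were measured by Luminex or ELISA. Screening used 10, 1, 0.1 and 0.01 μM; IC50 values came from semilogarithmic titrations.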

[1] = Microsomal stability: incubation with human liver microsomes, residual parent compound by HPLC-MS/MS; type: in vitro ADME; conditions: pH 7.4; human liver microsomes, 1 μM compound, 0.5 mg/ml HLM, 37° C., up to 60 min; read-out: t1/2 hLM
Description: Metabolic stability of compounds of the present invention was determined by incubation with human liver microsomes and subsequent determination of residual amount of the respective compound (“parent compound”) by HPLC-MS/MS.
In order to achieve this, in a final reaction volume of 1000 μl, each compound was incubated at a final concentration of 1 μM with 0.5 mg/ml human liver microsomes (HLM Pool 50 Donors, 20 mg/ml, BD Gentest, #452156, LotNr 88114) in 0.1 M Potassium phosphate buffer at pH 7.4, with a cofactor in form of a NADPH regenerating system (Promega, #V9510) according to the manufacturers' specifications. The final DMSO concentration in each sample was 0.4%. The incubation was performed at 37° C. under shaking conditions (Thermomixer, 1400 rpm) for different time intervals up to 60 min. To stop the reaction, for each time point 200 μl of the reaction were taken out and 200 μl ice-cold acetonitrile was added. Then, the samples were centrifuged (4° C., 14000*g for 15 min). The supernatant was analyzed for residual parent compound concentration and scanned for metabolites using HPLC-MS/MS. By using optimized MS methods for each compound, the peak area under curve for the compound specific signal is determined. The change of the peak areas over the assay time of 60 min resemble the remaining parent compound in % of T0. By these points, a balancing line was set. The half-time, as well as the clearance, can then be calculated on the basis of the slope.

IL-17F = assay: Cytokine assay: IL-17F production by human PBMC stimulated with PHA; type: cell-based; conditions: Homo sapiens, PBMC, IC50 class, read-out: IL-17F Inhib.
How it was run: as §1

IL-17A = assay: Cytokine assay: IL-17A production by human PBMC stimulated with PHA; type: cell-based; conditions: Homo sapiens, PBMC, IC50 class, read-out: IL-17A Inhib.
How it was run: as §1

| Structure (SMILES) | IC50 (INF-γ) | half-life at 1 μM [1] | IC50 (IL-17F) | IC50 (IL-17A) |
| --- | --- | --- | --- | --- |
| C[C@]1(O)C[C@@H](n2ncc(-c3onc(-c4c(F)cccc4Cl)c3-c3cnccn3)c2C(F)(F)F)C1 [Example 100, 3-{4-[3-(2-chloro-6-fluorophenyl)-4-(pyrazin-2-yl)-1,2-oxazol-5-yl]-5-(trifluoromethyl)-1H-pyrazol-1-yl}-1-methylcyclobutan-1-ol] | < 50 nM | > 100 min | < 50 nM | 50 to 500 nM |
| COc1cccc(-c2noc(-c3cnn([C@H]4C[C@@](C)(O)C4)c3C(F)(F)F)c2-c2ncccn2)c1Cl [Example 103, 3-{4-[3-(2-chloro-3-methoxyphenyl)-4-(pyrimidin-2-yl)-1,2-oxazol-5-yl]-5-(trifluoromethyl)-1H-pyrazol-1-yl}-1-methylcyclobutan-1-ol] | < 50 nM | > 100 min | < 50 nM | < 50 nM |
| CC(C)(O)CCn1ncc(-c2onc(-c3cccc(OCCN4CCOCC4)c3Cl)c2-c2ncccn2)c1C(F)(F)F [Example 133, 4-[4-(3-{2-chloro-3-[2-(morpholin-4-yl)ethoxy]phenyl}-4-(pyrimidin-2-yl)-1,2-oxazol-5-yl)-5-(trifluoromethyl)-1H-pyrazol-1-yl]-2-methylbutan-2-ol] | < 50 nM | 2 to 9.99 min | < 50 nM | < 50 nM |
| CC(C)(O)CCn1ncc(-c2onc(-c3cccc(OCCN4CCS(=O)(=O)CC4)c3Cl)c2-c2ncccn2)c1C(F)(F)F [Example 138, 4-[2-(2-chloro-3-{5-[1-(3-hydroxy-3-methylbutyl)-5-(trifluoromethyl)-1H-pyrazol-4-yl]-4-(pyrimidin-2-yl)-1,2-oxazol-3-yl}phenoxy)ethyl]-thiomorpholine-1,1-dione] | 50 to 500 nM | 2 to 9.99 min | < 50 nM | < 50 nM |
| CC(C)(O)CCn1ncc(-c2onc(-c3cccc(OCCN4CC5(COC5)C4)c3Cl)c2-c2ncccn2)c1C(F)(F)F [Example 139, 4-(4-{3-[2-chloro-3-(2-{2-oxa-6-azaspiro[3.3]heptan-6-yl}ethoxy)phenyl]-4-(pyrimidin-2-yl)-1,2-oxazol-5-yl}-5-(trifluoromethyl)-1H-pyrazol-1-yl)-2-methylbutan-2-ol] | 50 to 500 nM | 10 to 40 min | < 50 nM | < 50 nM |
| CC(C)(O)CCn1ncc(-c2onc(-c3cccc(OCCCN4CCS(=O)(=O)CC4)c3Cl)c2-c2ncccn2)c1C(F)(F)F [Example 141, 4-[3-(2-chloro-3-{5-[1-(3-hydroxy-3-methylbutyl)-5-(trifluoromethyl)-1H-pyrazol-4-yl]-4-(pyrimidin-2-yl)-1,2-oxazol-3-yl}phenoxy)propyl]-thiomorpholine-1,1-dione] | < 50 nM | 2 to 9.99 min | < 50 nM | < 50 nM |
| COC(=O)c1c(-c2cccc(OCCN3CCOCC3)c2Cl)noc1-c1cnn(C[C@H](C)O)c1C(F)(F)F [Example 148, methyl 3-{2-chloro-3-[2-(morpholin-4-yl)ethoxy]phenyl}-5-{1-[(2S)-2-hydroxypropyl]-5-(trifluoromethyl)-1H-pyrazol-4-yl}-1,2-oxazole-4-carboxylate] | < 50 nM | 2 to 9.99 min | < 50 nM | < 50 nM |
| COCc1c(-c2cccc(OCCN3CCOCC3)c2Cl)noc1-c1cnn([C@H]2C[C@@](C)(O)C2)c1C(F)(F)F [Example 150, 3-[4-(3-{2-chloro-3-[2-(morpholin-4-yl)ethoxy]phenyl}-4-(methoxymethyl)-1,2-oxazol-5-yl)-5-(trifluoromethyl)-1H-pyrazol-1-yl]-1-methylcyclobutan-1-ol] | < 50 nM | 2 to 9.99 min | < 50 nM | < 50 nM |
| COCc1c(-c2cccc(OCCN(C)C)c2Cl)noc1-c1cnn([C@H]2C[C@@](C)(O)C2)c1C(F)(F)F [Example 151, 3-[4-(3-{2-chloro-3-[2-(dimethylamino)ethoxy]phenyl}-4-(methoxymethyl)-1,2-oxazol-5-yl)-5-(trifluoromethyl)-1H-pyrazol-1-yl]-1-methylcyclobutan-1-ol] | 50 to 500 nM | > 100 min | 50 to 500 nM | 50 to 500 nM |

Continued, values first:

| IC50 (INF-γ) | half-life at 1 μM [1] | IC50 (IL-17F) | IC50 (IL-17A) | Structure (SMILES) |
| --- | --- | --- | --- | --- |
| < 50 nM | > 100 min | < 50 nM | < 50 nM | CC(C)(O)Cn1ncc(-c2onc(-c3c(F)cccc3Cl)c2-c2ncccn2)c1C(F)(F)F [Example 118, 1-{4-[3-(2-chloro-6-fluorophenyl)-4-(pyrimidin-2-yl)-1,2-oxazol-5-yl]-5-(trifluoromethyl)-1H-pyrazol-1-yl}-2-methylpropan-2-ol] |
| < 50 nM | > 100 min | 50 to 500 nM | < 50 nM | COc1cccc(-c2noc(-c3cnn(CCC(C)(C)O)c3C(F)(F)F)c2-c2ncccn2)c1Cl [Example 121, 4-{4-[3-(2-chloro-3-methoxyphenyl)-4-(pyrimidin-2-yl)-1,2-oxazol-5-yl]-5-(trifluoromethyl)-1H-pyrazol-1-yl}-2-methylbutan-2-ol] |
| < 50 nM | > 100 min | < 50 nM | < 50 nM | COc1cccc(-c2noc(-c3cnn(CCC(C)(C)O)c3C)c2-c2ncccn2)c1Cl [Example 124, 4-{4-[3-(2-chloro-3-methoxyphenyl)-4-(pyrimidin-2-yl)-1,2-oxazol-5-yl]-5-methyl-1H-pyrazol-1-yl}-2-methylbutan-2-ol] |
| < 50 nM | > 100 min | < 50 nM | 50 to 500 nM | COc1ccc(Cl)c(-c2noc(-c3cnn(CCC(C)(C)O)c3C)c2-c2ncccn2)c1Cl [Example 125, 4-{4-[3-(2,6-dichloro-3-methoxyphenyl)-4-(pyrimidin-2-yl)-1,2-oxazol-5-yl]-5-methyl-1H-pyrazol-1-yl}-2-methylbutan-2-ol] |
| < 50 nM | > 100 min | 50 to 500 nM | 50 to 500 nM | Cc1c(-c2onc(-c3c(F)cccc3Cl)c2-c2ncccn2)cnn1CCC(C)(C)O [Example 127, 4-{4-[3-(2-chloro-6-fluorophenyl)-4-(pyrimidin-2-yl)-1,2-oxazol-5-yl]-5-methyl-1H-pyrazol-1-yl}-2-methylbutan-2-ol] |
| 50 to 500 nM | > 100 min | 50 to 500 nM | < 50 nM | CN(C)CCOc1cccc(-c2noc(-c3cnn(CCC(C)(C)O)c3C(F)(F)F)c2-c2ncccn2)c1Cl [Example 134, 4-[4-(3-{2-chloro-3-[2-(dimethylamino)ethoxy]phenyl}-4-(pyrimidin-2-yl)-1,2-oxazol-5-yl)-5-(trifluoromethyl)-1H-pyrazol-1-yl]-2-methylbutan-2-ol] |
| < 50 nM | 40 to 100 min | 50 to 500 nM | 50 to 500 nM | CC(C)(O)CCn1ncc(-c2onc(-c3cccc(OCCN4CCCC4)c3Cl)c2-c2ncccn2)c1C(F)(F)F [Example 135, 4-[4-(3-{2-chloro-3-[2-(pyrrolidin-1-yl)ethoxy]phenyl}-4-(pyrimidin-2-yl)-1,2-oxazol-5-yl)-5-(trifluoromethyl)-1H-pyrazol-1-yl]-2-methylbutan-2-ol] |
| 50 to 500 nM | 10 to 40 min | 50 to 500 nM | 50 to 500 nM | CCN(CC)CCOc1cccc(-c2noc(-c3cnn(CCC(C)(C)O)c3C(F)(F)F)c2-c2ncccn2)c1Cl [Example 137, 4-[4-(3-{2-chloro-3-[2-(diethylamino)ethoxy]phenyl}-4-(pyrimidin-2-yl)-1,2-oxazol-5-yl)-5-(trifluoromethyl)-1H-pyrazol-1-yl]-2-methylbutan-2-ol] |
| 50 to 500 nM | > 100 min | 500 to 5000 nM | 500 to 5000 nM | Cc1c(-c2onc(-c3cccc(OCCN(C)C)c3Cl)c2-c2ncccn2)cnn1CCC(C)(C)O [Example 145, 4-[4-(3-{2-chloro-3-[2-(dimethylamino)ethoxy]phenyl}-4-(pyrimidin-2-yl)-1,2-oxazol-5-yl)-5-methyl-1H-pyrazol-1-yl]-2-methylbutan-2-ol] |
| 50 to 500 nM | > 100 min | 500 to 5000 nM | 50 to 500 nM | Cc1c(-c2onc(-c3cccc(OCCN4CCCC4)c3Cl)c2-c2ncccn2)cnn1CCC(C)(C)O [Example 146, 4-[4-(3-{2-chloro-3-[2-(pyrrolidin-1-yl)ethoxy]phenyl}-4-(pyrimidin-2-yl)-1,2-oxazol-5-yl)-5-methyl-1H-pyrazol-1-yl]-2-methylbutan-2-ol] |
